In PubChem BioAssay (NCI):
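Five compound concentrations were applied to cells in 96-well plates for 48 hours; endpoints were derived by simple linear interpolation of the resulting dose-response curve. At the GI50, growth is halved. TGI is the concentration that stops growth completely.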

Experiments:
Experiment in all cases: growth of human tumour cells (NCI), 48 h
[1] = system: NCI-H522 lung
[2] = system: NCI-H23 lung
[3] = system: SF-539 CNS
[4] = system: UACC-62 melanoma
[5] = system: MALME-3M melanoma
[6] = system: MDA-MB-435
[7] = system: SK-MEL-28 melanoma
[8] = system: T-47D breast
[9] = system: A498 renal
[10] = system: NCI/ADR-RES ovarian

Compound | TGI [1] | TGI [2] | TGI [3] | TGI [4] | TGI [5] | TGI [6] | TGI [7] | TGI [8] | TGI [9] | TGI [10] | GI50 [1] | GI50 [2] | GI50 [3] | GI50 [4] | GI50 [5] | GI50 [6] | GI50 [7] | GI50 [8] | GI50 [9] | GI50 [10]
COc1cccc(CSCC(=O)O)c1 | > 100 µM | > 100 µM | > 100 µM | > 100 µM | > 100 µM | > 100 µM | > 100 µM | > 100 µM | > 100 µM | > 100 µM |  |  |  |  |  |  |  |  |  | 
COc1cccc(-c2nn(-c3ccccc3)cc2-c2ccnc(NCCNC(=O)Nc3cccc(C(F)(F)F)c3)c2)c1 | 3.19 µM | 4.15 µM | 3.32 µM | 3.73 µM | 3.9 µM | 3.38 µM | 3.77 µM | 6.01 µM | 8.37 µM | 5.82 µM | 1.24 µM | 1.86 µM | 1.75 µM | 1.85 µM | 1.76 µM | 1.75 µM | 1.83 µM | 2.23 µM | 2.49 µM | 2.22 µM
CN(COC(=O)c1ccccc1)c1nc(N(C)COC(=O)c2ccccc2)nc(N(C)COC(=O)c2ccccc2)n1 | > 100 µM | > 100 µM | 38.9 µM | > 100 µM | > 100 µM | > 100 µM | > 100 µM | > 100 µM | 40.8 µM | > 100 µM |  |  |  |  |  |  |  |  |  | 
COc1ccc(/C=c2\sc3n(c2=O)C2C(NN=3)N(C)C(=O)N2C)cc1 (centres undefined) | > 100 µM | > 100 µM | 6.04 µM | > 100 µM | > 100 µM | 0.759 µM | > 100 µM | > 100 µM | 1.49 µM | > 40.9 µM | 0.877 µM | 1.75 µM | 0.78 µM | 0.578 µM | 1.19 µM | 0.2 µM | 2.27 µM | 1.56 µM | 0.113 µM | 0.579 µM
N#Cc1c(Br)n(C2OC(CO)C(O)C2O)c2ncnc(N)c12 (centres undefined) | 14.8 µM | 41.1 µM | 19.3 µM | 6.09 µM | 20 µM | > 46.2 µM | 12.7 µM | 21 µM | 20.9 µM | 52.5 µM | 4.62 µM | 3.63 µM | 3.91 µM | 2.64 µM | 2.53 µM | 1.24 µM | 2.14 µM | 0.498 µM | 2.64 µM | 1.43 µM
CCCCCCNC(=O)Oc1ccc(/C(=C(/C)Cc2ccc(OC)cc2)c2ccc(OCCCN(C)C)cc2)cc1 | 31.3 µM | 29.9 µM | 30.3 µM | 30.4 µM | 30.5 µM | 27.1 µM | 28.1 µM | 27.3 µM | 27.3 µM | 31.3 µM | 16.2 µM | 15.1 µM | 16.2 µM | 16.6 µM | 15.3 µM | 13.8 µM | 14.5 µM | 11.3 µM | 14.1 µM | 15.8 µM
Cc1ccc(-c2c3c(nn2-c2ccc(S(N)(=O)=O)cc2)-c2ccccc2C3)cc1 | 27.6 µM | 45.2 µM | 33.3 µM | 24.1 µM | 26.5 µM | 34.7 µM | 33.8 µM | > 100 µM | 21 µM | 68.7 µM | 11.5 µM | 22.3 µM | 18.3 µM | 11.3 µM | 11.6 µM | 18.2 µM | 17.7 µM | 71.3 µM | 6.07 µM | 23.4 µM
COc1ccc2c(c1)CC[C@@H]1[C@@H]2CC[C@]2(C)[C@@H](NC(=O)/C=C/c3ccc(O)c(O)c3)CC[C@@H]12 | 5.73 µM | 12.6 µM | 15.6 µM | 6.19 µM | 25.9 µM | 11.1 µM | > 100 µM | 43 µM | 31.1 µM | 6.05 µM | 1.68 µM | 3.51 µM | 4.1 µM | 2.12 µM | 11.2 µM | 3.43 µM | 18.5 µM | 17.3 µM | 14.3 µM | 2 µM
O=[N+]([O-])c1ccc(Oc2nc(Nc3ccc(O[C@H]4CO[C@H]5[C@@H]4OC[C@@H]5O)c(Cl)c3)ncc2F)c(Cl)c1 | 5.6 µM | 3.22 µM | 3.86 µM | 2.27 µM | 3.17 µM | 3.5 µM | 4.78 µM | 8.06 µM | 2.38 µM | > 100 µM | 1.17 µM | 1.3 µM | 1.55 µM | 0.843 µM | 1.07 µM | 1.2 µM | 1.55 µM | 1.13 µM | 0.669 µM | 9.04 µM
FC(F)(F)c1ccc(-c2cnc(-n3cc(COCCN4CCCCC4)nn3)nc2NC2CCCCCC2)cc1 | 7.99 µM | 7.81 µM | 7.42 µM | 7.6 µM | 8.47 µM | 7.76 µM | 6.99 µM | 9.21 µM | 7.04 µM | 7.66 µM | 3.93 µM | 3.8 µM | 3.89 µM | 3.88 µM | 4.24 µM | 3.74 µM | 3.6 µM | 4.12 µM | 3.56 µM | 3.85 µM
Cc1ccc(C(NC(=O)c2ccccc2)c2ccc3cccnc3c2O)cc1 (centres undefined) | 2.74 µM | > 32.5 µM | 1.91 µM | 0.763 µM | 12.3 µM | 23.4 µM | 41.6 µM | 27.7 µM | 7.88 µM |  | 0.31 µM | 0.417 µM | 0.318 µM | 0.236 µM | 0.441 µM | 0.491 µM | 0.492 µM | 0.478 µM | 0.376 µM | 0.189 µM
Clc1ccc(-c2nnc(-c3cccc4ccccc34)o2)cc1Cl | > 100 µM | > 100 µM | > 100 µM | > 100 µM | > 100 µM | > 100 µM | > 100 µM | > 100 µM | > 100 µM | > 100 µM |  |  |  |  |  |  |  |  |  | 
CCN(Cc1ccc(F)cc1)c1ccc(CO)c(C)c1 | 22 µM | 37.1 µM | 29.8 µM | 6.87 µM | 17.3 µM | 45.5 µM | 28.6 µM | 6.95 µM | 1.14 µM | 53.5 µM | 8.52 µM | 13.2 µM | 15 µM | 1.19 µM | 5.58 µM | 18 µM | 13.3 µM | 0.92 µM | 0.216 µM | 16.8 µM
C=C1C(=O)O[C@H]2[C@H]1CC/C(COC(=O)CCSCCC(=O)OC/C1=C/CC[C@@]3(C)O[C@H]3[C@H]3OC(=O)C(=C)[C@@H]3CC1)=C\CC[C@@]1(C)O[C@@H]21 | 2.29 µM | 4.2 µM | 2.59 µM | 3.61 µM | 2.73 µM | 4.19 µM | 2.86 µM | 3.21 µM | 4.78 µM | 11 µM | 0.686 µM | 1.89 µM | 1.2 µM | 1.7 µM | 1.12 µM | 1.63 µM | 1.39 µM | 1.3 µM | 1.7 µM | 3.21 µM
COc1cccc(/C=N/NC(=S)NC2CC3CCC2C3)c1O (centres undefined) | 37.6 µM | 45.4 µM | 29.3 µM | 50.1 µM | 20 µM | 78.9 µM | 33.5 µM | 11.8 µM | 12.9 µM | 15.1 µM | 11.5 µM | 15.1 µM | 10.8 µM | 10.8 µM | 5.65 µM | 16.1 µM | 13.1 µM | 3.13 µM | 3.18 µM | 3.16 µM
COc1cc(OC)c2nccc(NCCCN(C)C)c2c1[N+](=O)[O-] | > 100 µM | > 100 µM | > 100 µM | > 100 µM | > 100 µM | > 100 µM | > 100 µM | > 100 µM | > 100 µM | > 100 µM |  |  |  |  |  |  |  |  |  | 
Nc1nc(N)c(C=Nc2ccc(Br)cc2)c(Nc2ccc(Br)cc2)n1 | 33.2 µM | 27.3 µM | 24.4 µM | 24.4 µM | 39.7 µM | 27.6 µM | 24.7 µM | 18.4 µM | 22.4 µM | 26.3 µM | 8.2 µM | 10 µM | 12.1 µM | 12.1 µM | 17.8 µM | 10.5 µM | 12.3 µM | 4.22 µM | 10.6 µM | 5.54 µM
S=C(Nc1ccc(N=Nc2ccccc2)cc1)SCc1ccccc1 | 36.2 µM | 30.7 µM | 34.5 µM | 31.8 µM | 22.9 µM | 36.4 µM | 38 µM | > 100 µM | 43.7 µM | 35.1 µM |  |  |  |  |  |  |  |  |  | 
Cc1cc2cc3ccc(N(C)C)cc3nc2cc1N | 2.4 µM | 4.42 µM | 2.49 µM | 2.71 µM | 3.42 µM | 2.28 µM | 4.74 µM | 3.5 µM | 2.05 µM | 23.4 µM | 0.612 µM | 0.49 µM | 0.658 µM | 0.744 µM | 0.929 µM | 0.703 µM | 1.69 µM | 0.434 µM | 0.433 µM | 2.51 µM
CC(C)N1CCN(Cc2ccc3c(NNC(=O)c4ccccc4)nc4cc(F)ccc4n23)CC1 | 5.05 µM | 8.94 µM | 1.82 µM | 2.67 µM | 2.4 µM | 15.1 µM | 4.58 µM | 11.7 µM | 4.12 µM | 4.53 µM | 0.532 µM | 0.93 µM | 0.403 µM | 0.388 µM | 0.575 µM | 0.655 µM | 0.599 µM | 0.419 µM | 0.564 µM | 0.237 µM
O=C(O)C1CC2(C1)CC(C(=O)O)C2 (centres undefined) | > 100 µM | > 100 µM | > 100 µM | > 100 µM | > 100 µM | > 100 µM | > 100 µM | > 100 µM | > 100 µM | > 100 µM |  |  |  |  |  |  |  |  |  | 
CCOc1cc(Br)c(C(C)NC(=O)c2cccc(OC)c2)cc1OCC (centres undefined) | 54.4 µM | > 100 µM | 42.8 µM | > 100 µM | > 89.3 µM | 6.1 µM | > 100 µM | > 100 µM | 25.5 µM | > 100 µM | 6.83 µM | 29.1 µM | 7.2 µM | 6.61 µM | 9.9 µM | 2.16 µM | 12 µM | 9.53 µM | 0.866 µM | 5.71 µM
O=C(O)c1cn(C2CC2)c2cc(N3CCN(C(=O)Nc4nc(-c5ccccc5)cs4)CC3)c(F)cc2c1=O | 6.26 µM | 14 µM | > 100 µM | 8.52 µM | 6.52 µM | > 100 µM | > 100 µM | > 100 µM | 7.08 µM | > 100 µM | 1.39 µM | 0.654 µM | 0.634 µM | 0.67 µM | 1.53 µM | 1.16 µM | 0.705 µM | 1.74 µM | 1.06 µM | 4.82 µM
S=c1[nH]nc(Cc2ccccc2)c(=S)[nH]1 | > 100 µM | > 100 µM | > 100 µM | > 50.1 µM | > 100 µM | > 100 µM | > 100 µM | 75.4 µM | > 81.8 µM | > 100 µM |  |  |  |  |  |  |  |  |  | 
